Tests used:
[1] = tested on: Homozygous tolerant H1 seedlings; experiment: Foliar herbicide application, lethal rate; type: in vivo, maize (Zea mays L.); settings: Homozygous tolerant H1, average of two families; scored 21 days after treatment
Description: (§1) Foliar applications of the herbicides were made to greenhouse- or field-grown seedlings at the three- to five-leaf stage. Herbicides were applied in a spray volume of 187 l/ha that includes 2.3 l/ha crop oil concentrate to enhance uptake. Sethoxydim and haloxyfop were applied using commercial formulations (Poast from BASF Corp and Verdict from Dow Elanco, respectively). Visual observations were recorded 14-21 days after herbicide treatments.
(§2) For each mutant, two homozygous tolerant R4 families were derived from two different regenerated plants and two heterozygous F1 families were obtained from crosses of R3 homozygous tolerant lines with the susceptible inbreds A188 and A619. Sethoxydim and haloxyfop each were applied at rates ranging from 0.0034 to 7.0 kg/ha. For each genotype a five-rate doubling series was used to determine herbicide lethality. Because of the large differences between wildtype and mutants in herbicide susceptibility, the ranges of herbicide application rates were varied. Two five plant/pot replicates of each family were evaluated for each rate. Herbicide injury symptoms were scored visually 21 days after herbicide treatment. The lethal rate was considered to be the lowest application rate resulting in death of all seedlings in the four replications of each homozygous tolerant genotype or in the eight replications of the heterozygous combinations.

[2] = tested on: Heterozygous tolerant Inbred × S3 seedlings; experiment: Foliar herbicide application, lethal rate; type: in vivo, maize (Zea mays L.); settings: Heterozygous tolerant Inbred × S3, average of A188- and A619-derived F1 families
Description: as §1, §2

[3] = tested on: Heterozygous tolerant Inbred × H2 seedlings; experiment: Foliar herbicide application, lethal rate; type: in vivo, maize (Zea mays L.); settings: Heterozygous tolerant Inbred × H2, average of A188- and A619-derived F1 families
Description: as §1, §2

[4] = tested on: Homozygous tolerant S2 seedlings; experiment: Foliar herbicide application, lethal rate; type: in vivo, maize (Zea mays L.); settings: for Lethal rates: Homozygous tolerant S2, average of two families, scored 21 days after treatment
Description: as §1, §2

[5] = tested on: Wildtype (A188 and A619) seedlings; experiment: Foliar herbicide application, lethal rate; type: in vivo, maize (Zea mays L.); settings: average response of A188 and A619, scored 21 days after treatment
Description: as §1, §2

[6] = tested on: Homozygous tolerant H2 seedlings; experiment: Foliar herbicide application, lethal rate; type: in vivo, maize (Zea mays L.); settings: for Fold increase in tolerance compared to the wildtype: H2 seedlings; for Lethal rates: Homozygous tolerant H2, average of two families, scored 21 days after treatment
Description: as §1, §2

[7] = tested on: Homozygous tolerant S3 seedlings; experiment: Foliar herbicide application, lethal rate; type: in vivo, maize (Zea mays L.); settings: for Lethal rates: Homozygous tolerant S3, average of two families, scored 21 days after treatment
Description: as §1, §2

[8] = tested on: Heterozygous tolerant Inbred × S2 seedlings; experiment: Foliar herbicide application, lethal rate; type: in vivo, maize (Zea mays L.); settings: Heterozygous tolerant Inbred × S2, average of A188- and A619-derived F1 families
Description: as §1, §2

[9] = tested on: Heterozygous tolerant Inbred × H1 seedlings; experiment: Foliar herbicide application, lethal rate; type: in vivo, maize (Zea mays L.); settings: Heterozygous tolerant Inbred × H1, average of A188- and A619-derived F1 families
Description: as §1, §2

ACCase of S-2 tissue = ACCase of S-2 tissue (Zea mays, UniProt Q41743); experiment: ACCase activity, herbicide inhibition, S-2 tissue; type: biochemical, maize; settings: on concentration basis
Description: Maize chloroplasts, isolated as described above, were suspended in buffer C (0.1 M Tricine-KOH, pH 8.0; 0.3 M glycerol, and 1 mM DTT) and homogenized in a glass tissue homogenizer. The disrupted chloroplast fraction was centrifuged at 16,000 g for 15 minutes. The supernatant was desalted on a Sephadex G-25 column (1.5×5 cm equilibrated with 0.1 M Tricine-KOH, pH 8.0; and 0.3 M glycerol) and assayed directly. ACCase activity (B. J. Nikolau et al., Arch. Biochem. Biophys., 211, 605-612 (1981)) was assayed at 30° C. in a 0.2 ml volume which contained 1 mM ATP, 3 mM acetyl coenzyme A, 2.5 mM MgCl2, 50 mM KCl, 0.5 mM DTT, and 15 mM [^14C]NaHCO3 (0.17 mCi/mmol). Reactions were initiated by addition of acetyl coenzyme A and stopped by addition of 25 μl of 12 N HCl. Product formation was determined by the radioactivity found in an acid stable fraction by liquid scintillation spectrometry. Enzyme activity was linear for 15 minutes.
Assays were conducted to determine if ACCase extracted from cell line S-2 was altered with respect to herbicide activity. ACCase activity of control tissue was 50% inhibited either by 1.5 μM sethoxydim, or by 0.25 μM haloxyfop. ACCase activity of S-2 tissue was inhibited 50% either by 70 μM sethoxydim, or by 1.8 μM haloxyfop, indicating at least 40-fold and 7-fold decreases in herbicide sensitivity on concentration basis, respectively.

[10] = tested on: progeny of 2167-9/2160-154 control plants; experiment: Sethoxydim treatment of progeny seedlings, greenhouse; type: in vivo, maize; settings: seedlings treated at 3-4 leaf stage, rated two weeks after treatment
Description: Seeds obtained by the crossing procedure described above were viable and germinated normally. Seeds from thirty S-2 selfed plants and fifteen 2167-9/2160-154 control plants were planted in 25×50 cm trays of soil (28 seeds from each plant in one tray) and grown in the greenhouse. Seedlings at the 3-4 leaf stage were treated with 0.1, 0.44, and 1.1 kg/ha sethoxydim and evaluated for visual herbicide damage and shoot height. Based on visual rating of herbicide damage two weeks after treatment, selfed progeny of S-2 plants segregated approximately 1:2:1 for healthy, uninjured plants: to plants showing partial injury: to dead plants, respectively, at 0.44 and 1.1 kg/ha sethoxydim treatments. All control progeny of 2167-9/2160-154 control plants were killed by 0.1 kg/ha and greater levels of sethoxydim. […] Similar tests were conducted on progeny of S-2 plants crossed to the other inbreds. In all cases, these test cross progeny treated with 0.44 kg/ha sethoxydim segregated 1:1 for growing shoots versus dead shoots whether S-2 plants were used as male or female parents. […] In all cases, control plants crossed to the other inbreds were killed and therefore sethoxydim-sensitive.

[11] = tested on: control (2167-9/2160-154 unselected) plants; experiment: Whole plant sethoxydim spray, greenhouse, control regenerated plants; type: in vivo, maize; settings: greenhouse-grown regenerated plants, sprayed
Excerpt: (§3) Groups of eight control (2167-9/2160-154 unselected) and eight S-2 plants were sprayed with either 0.0, 0.01, 0.05, 0.11, 0.22 or 0.44 kg/ha sethoxydim to determine whole plant sethoxydim-tolerance of greenhouse-grown plants. Control plants were killed by 0.05 kg/ha or more sethoxydim.

[12] = tested on: plants regenerated from the S-2 cell line; experiment: Whole plant sethoxydim spray, greenhouse, S-2 regenerated plants; type: in vivo, maize
Excerpt: as §3

| SMILES | Lethal rates [1] [kg/ha] | Lethal rates [2] | Lethal rates [3] [kg/ha] | Lethal rates [4] [kg/ha] | Lethal rates [5] [kg/ha] | Fold increase in tolerance compared to the wildtype [6] | Lethal rates [6] [kg/ha] | Lethal rates [7] [kg/ha] | Lethal rates [8] | Lethal rates [9] [kg/ha] | Fold decrease in herbicide sensitivity of ACCase, S-2 versus control (ACCase of S-2 tissue) [fold] | Fold increase over the lethal rate for wildtype plants ([4]; homozygous S2 seedlings, not killed at 7 kg/ha) [fold] | Fold increase over the lethal rate for wildtype plants ([7]; homozygous S3 seedlings, not killed at 7 kg/ha) [fold] | Rate that killed all control progeny [10] [kg/ha] | Rate that killed control plants [11] [kg/ha] | Survival of S-2 plants ([12]; 0.44 kg/ha sethoxydim) | Shoot height of regenerated S-2 plants ([12]; 14 days after treatment with 0.44 kg/ha sethoxydim) | Fold more tolerance of S-2 plants than control ([12]; whole plant spray) |
| --- | --- | --- | --- | --- | --- | --- | --- | --- | --- | --- | --- | --- | --- | --- | --- | --- | --- | --- |
| CC(Oc1ccc(Oc2ncc(C(F)(F)F)cc2Cl)cc1)C(=O)O (stereo not shown) [Haloxyfop, 2-[4-[[3-chloro-5-(trifluoromethyl)-2-pyridinyl]oxy]phenoxy]-propanoic acid] | 0.11 | 0.11 kg/ha | 0.11 | 0.22 | 0.014 | about 16 fold | 0.22 | 0.22 | 0.11 kg/ha | 0.11 | ≥ 7 | – | – | – | – | – | – | – |
| CCCC(=NOCC)C1=C(O)CC(CC(C)SCC)CC1=O (stereo not shown) [Sethoxydim, 2-[1-(ethoxyimino)-butyl]-5-[2-(ethylthio)propyl]-3-hydroxy-2-cyclohexen-1-one] | 0.055 | ≧1.8 kg/ha | 0.22 | >7.0 | 0.055 | about 16 fold | 0.88 | >7.0 | ≧1.8 kg/ha | 0.055 | – | ≥ 127 | ≥ 127 | ≥ 0.1 | ≥ 0.05 | survived | only slightly reduced | at least 20 fold |

Source: patent US6414222B1, “Gene combinations for herbicide tolerance in corn” (Regents of the University of Minnesota, priority 1993, dated 2002)
